Reference: ChEMBL document CHEMBL3885881, “DrugMatrix”

Organism: Rattus norvegicus
Assay: DrugMatrix - Regimen: Daily Repeat
Assay type: toxicity, organism-based, Sprague-Dawley
Design: regimen Daily Repeat, gender Male, age 6-8 weeks
Conditions: in vivo, po, route oral GAVAGE, vehicle 100 % WATER; for BASOPHIL / EOSINOPHIL / ERYTHROCYTE COUNT / HEMATOCRIT / HEMOGLOBIN / LEUKOCYTE COUNT / LYMPHOCYTE / MEAN CORPUSCULAR HEMOGLOBIN / MEAN CORPUSCULAR HEMOGLOBIN CONCENTRATION / MEAN CORPUSCULAR VOLUME / MONOCYTE / NEUTROPHIL / PLATELET COUNT / ABSOLUTE BASOPHIL / ABSOLUTE EOSINOPHIL / ABSOLUTE LYMPHOCYTE / ABSOLUTE MONOCYTE: tissue Blood; for ALANINE AMINOTRANSFERASE / ALBUMIN / ALKALINE PHOSPHATASE / ASPARTATE AMINOTRANSFERASE / BLOOD UREA NITROGEN / CARBON DIOXIDE / CHLORIDE / CHOLESTEROL / CREATINE PHOSPHOKINASE / CREATININE / GLUCOSE / LACTATE DEHYDROGENASE / LIPASE / PHOSPHORUS / POTASSIUM / SODIUM / TOTAL BILIRUBIN / TOTAL PROTEIN / URIC ACID: tissue Plasma
[1] = 0 mg/kg, […], dose level Control, time 14 day
[2] = 120 mg/kg, 72 h, dose level High, time 3 day
[3] = 120 mg/kg, 120 h, dose level High, time 5 day

COCCc1ccc(OCC(O)CNC(C)C)cc1 (configuration not stated) [METOPROLOL]
BASOPHIL [1]: 0.93% | EOSINOPHIL [1]: 0.5% | ERYTHROCYTE COUNT [1]: 7.2 x10E6/uL | HEMATOCRIT [1]: 43.27% | HEMOGLOBIN [1]: 14.73 G/DL | LEUKOCYTE COUNT [1]: 12.58 x10E3/uL | LYMPHOCYTE [1]: 75.5% | MEAN CORPUSCULAR HEMOGLOBIN [1]: 20.5 pg | MEAN CORPUSCULAR HEMOGLOBIN CONCENTRATION [1]: 34.07 G/DL | MEAN CORPUSCULAR VOLUME [1]: 60.1 fL | MONOCYTE [1]: 1.33% | NEUTROPHIL [1]: 20.5% | PLATELET COUNT [1]: 1162 x10E3/uL | ALANINE AMINOTRANSFERASE [1]: 25.33 u/L | ALBUMIN [1]: 3.87 G/DL | ALKALINE PHOSPHATASE [1]: 321.67 u/L | ASPARTATE AMINOTRANSFERASE [1]: 60.33 u/L | BLOOD UREA NITROGEN [1]: 13.33 mg/dL | CARBON DIOXIDE [1]: 45 mmol/L | CHLORIDE [1]: 104.67 MEQ/L | CHOLESTEROL [1]: 72.33 mg/dL | CREATINE PHOSPHOKINASE [1]: 213.33 u/L | CREATININE [1]: 0.3 mg/dL | GLUCOSE [1]: 164 mg/dL | LACTATE DEHYDROGENASE [1]: 84.33 u/L | LIPASE [1]: 18.33 u/L | PHOSPHORUS [1]: 10.23 mg/dL | POTASSIUM [1]: 6.17 MEQ/L | SODIUM [1]: 144 MEQ/L | TOTAL BILIRUBIN [1]: 0.37 mg/dL | TOTAL PROTEIN [1]: 6.43 G/DL | URIC ACID [1]: 0.0667 mg/dL | ABSOLUTE BASOPHIL [2]: 76.7 cells/µL | ABSOLUTE EOSINOPHIL [2]: 230 cells/µL | ABSOLUTE LYMPHOCYTE [2]: 5150 cells/µL | ABSOLUTE MONOCYTE [2]: 220 cells/µL | BASOPHIL [2]: 1.03% | EOSINOPHIL [2]: 3.13% | ERYTHROCYTE COUNT [2]: 6.58 x10E6/uL | HEMATOCRIT [2]: 42.5% | HEMOGLOBIN [2]: 14.4 G/DL | LEUKOCYTE COUNT [2]: 7.41 x10E3/uL | LYMPHOCYTE [2]: 69.3% | MEAN CORPUSCULAR HEMOGLOBIN [2]: 21.87 pg | MEAN CORPUSCULAR HEMOGLOBIN CONCENTRATION [2]: 33.8 G/DL | MEAN CORPUSCULAR VOLUME [2]: 64.63 fL | MONOCYTE [2]: 2.97% | NEUTROPHIL [2]: 23.23% | PLATELET COUNT [2]: 1007 x10E3/uL | ALANINE AMINOTRANSFERASE [2]: 35 u/L | ALBUMIN [2]: 3.7 G/DL | ALKALINE PHOSPHATASE [2]: 368.67 u/L | ASPARTATE AMINOTRANSFERASE [2]: 69.33 u/L | BLOOD UREA NITROGEN [2]: 16.67 mg/dL | CARBON DIOXIDE [2]: 34.67 mmol/L | CHLORIDE [2]: 104 MEQ/L | CHOLESTEROL [2]: 74.33 mg/dL | CREATINE PHOSPHOKINASE [2]: 338.33 u/L | CREATININE [2]: 0.47 mg/dL | GLUCOSE [2]: 161.33 mg/dL | LACTATE DEHYDROGENASE [2]: 274.33 u/L | LIPASE [2]: 13 u/L | PHOSPHORUS [2]: 11.6 mg/dL | POTASSIUM [2]: 6.57 MEQ/L | SODIUM [2]: 142.67 MEQ/L | TOTAL BILIRUBIN [2]: 0.37 mg/dL | TOTAL PROTEIN [2]: 6.03 G/DL | URIC ACID [2]: 0.97 mg/dL | ABSOLUTE BASOPHIL [3]: 66.7 cells/µL | ABSOLUTE EOSINOPHIL [3]: 380 cells/µL | ABSOLUTE LYMPHOCYTE [3]: 7010 cells/µL | ABSOLUTE MONOCYTE [3]: 250 cells/µL
